Results taken from PubChem BioAssay AID248 (DTP/NCI, 2004).
Values joined by “and” are separate entries in the source; they are usually repeats but may differ in a detail not shown here. Equal values may be shown once. Inconclusive results and toxic doses are left out. No stated cut-off is given here; in the data, active means T/C of 150% or more; inactive means T/C below 125%.

System: L1210 leukemia ip in BDF1 mice, survival T/C
Assay: NCI In Vivo Anticancer Drug Screen. Data for tumor model L1210 Leukemia (intraperitoneal) in B6D2F1 (BDF1) mice
Details: endpoint: mean survival time, higher = longer survival
In short: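 Transplanted-tumor mice were given test agent; controls received vehicle only. Survival readings from the two groups were divided (treated over control).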

[1] = dose: 100.0 mg/kg/injection, schedule: Q04DX003 (ip), vehicle: saline with Tween-80
[2] = dose: 200.0 mg/kg/injection, schedule: Q04DX003 (ip), vehicle: saline with Tween-80
[3] = dose: 400.0 mg/kg/injection, schedule: Q04DX003 (ip), vehicle: saline with Tween-80
[4] = dose: 100.0 mg/kg/injection, schedule: Q01DX009 (ip), vehicle: Klucel (hydroxypropylcellulose) (HPC)
[5] = dose: 200.0 mg/kg/injection, schedule: Q01DX009 (ip), vehicle: Klucel (hydroxypropylcellulose) (HPC)
[6] = dose: 100.0 mg/kg/injection, schedule: Q01DX009 (ip), vehicle: saline with Tween-80
[7] = dose: 200.0 mg/kg/injection, schedule: Q01DX009 (ip), vehicle: saline with Tween-80
[8] = dose: 400.0 mg/kg/injection, schedule: Q01DX009 (ip), vehicle: saline with Tween-80
[9] = dose: 100.0 mg/kg/injection, schedule: Q01DX001 (ip), vehicle: saline
[10] = dose: 200.0 mg/kg/injection, schedule: Q01DX001 (ip), vehicle: saline
[11] = dose: 400.0 mg/kg/injection, schedule: Q01DX001 (ip), vehicle: saline
[12] = dose: 100.0 mg/kg/injection, schedule: Q04DX003 (ip), vehicle: Klucel (hydroxypropylcellulose) (HPC)
[13] = dose: 200.0 mg/kg/injection, schedule: Q04DX003 (ip), vehicle: Klucel (hydroxypropylcellulose) (HPC)
[14] = dose: 400.0 mg/kg/injection, schedule: Q04DX003 (ip), vehicle: Klucel (hydroxypropylcellulose) (HPC)

Measured: T/C

Cc1cccc(C(=O)NN)n1
inactive: dose: 12.5 mg/kg/injection, schedule: Q01DX009 (ip), vehicle: saline 94 % of control | dose: 25.0 mg/kg/injection, schedule: Q01DX009 (ip), vehicle: saline 105 % of control

COC(=O)c1ccccc1N=NN(C)C1CCCCC1
inactive: dose: 100.0 mg/kg/injection, schedule: Q01DX009 (ip), vehicle: other 106 % of control | dose: 200.0 mg/kg/injection, schedule: Q01DX009 (ip), vehicle: other 87 % of control

SC(S)(Cc1ccccc1)Cc1ccccc1
inactive: dose: 100.0 mg/kg/injection, schedule: Q04DX002 (ip), vehicle: saline 100 % of control | dose: 200.0 mg/kg/injection, schedule: Q04DX002 (ip), vehicle: saline 100 % of control | dose: 400.0 mg/kg/injection, schedule: Q04DX002 (ip), vehicle: saline 94 % of control

CC/C(=N/Nc1ccc([N+](=O)[O-])cc1[N+](=O)[O-])c1ccccc1
inactive: dose: 100.0 mg/kg/injection, schedule: Q01DX001 (ip), vehicle: other 96 % of control | dose: 200.0 mg/kg/injection, schedule: Q01DX001 (ip), vehicle: other 111 % of control | dose: 400.0 mg/kg/injection, schedule: Q01DX001 (ip), vehicle: other 91 % of control

CCOP(=O)(OCC)OCc1ccc(C)cc1
inactive: [1] 94 % of control | [2] 102 % of control | [3] 97 % of control

CCC1CC2CCC(c3cc4c(cc3OC)N(C)C3C(O)(C(=O)OC)C(OC(C)=O)C5(CC)C=CCN6CCC43C65)c3[nH]c4ccccc4c3CCN(C1)C2 (configuration not stated)
inactive: dose: 0.8 mg/kg/injection, schedule: Q01DX001 (ip), vehicle: saline 97 % of control | dose: 1.6 mg/kg/injection, schedule: Q01DX001 (ip), vehicle: saline 97 % of control | dose: 3.2 mg/kg/injection, schedule: Q01DX001 (ip), vehicle: saline 97 % of control | dose: 6.4 mg/kg/injection, schedule: Q01DX001 (ip), vehicle: saline 100 % of control

CCCCCCCCC/C=N\N=C(N)N
inactive: dose: 15.0 mg/kg/injection, schedule: Q01DX Z (ip), vehicle: carboxymethylcellulose (CMC) 101 % of control | dose: 30.0 mg/kg/injection, schedule: Q01DX Z (ip), vehicle: carboxymethylcellulose (CMC) 108 % of control | dose: 60.0 mg/kg/injection, schedule: Q01DX Z (ip), vehicle: carboxymethylcellulose (CMC) 97 % of control | dose: 120.0 mg/kg/injection, schedule: Q01DX Z (ip), vehicle: carboxymethylcellulose (CMC) 103 % of control and 104 % of control | dose: 120.0 mg/kg/injection, schedule: Q01DX Z (oral), vehicle: carboxymethylcellulose (CMC) 104 % of control | dose: 240.0 mg/kg/injection, schedule: Q01DX Z (ip), vehicle: carboxymethylcellulose (CMC) 100 % of control | dose: 240.0 mg/kg/injection, schedule: Q01DX Z (oral), vehicle: carboxymethylcellulose (CMC) 104 % of control | dose: 480.0 mg/kg/injection, schedule: Q01DX Z (oral), vehicle: carboxymethylcellulose (CMC) 102 % of control | dose: 960.0 mg/kg/injection, schedule: Q01DX Z (oral), vehicle: carboxymethylcellulose (CMC) 104 % of control

Cc1cc([N+](=O)[O-])ccc1NC(=O)c1c(Cl)c(Cl)c(C(=O)Nc2ccc([N+](=O)[O-])cc2C)c(Cl)c1Cl
inactive: [4] 101 % of control | [5] 94 % of control | dose: 400.0 mg/kg/injection, schedule: Q01DX009 (ip), vehicle: Klucel (hydroxypropylcellulose) (HPC) 103 % of control

CCOC(=O)C(=CNc1cccc2ccncc12)C(=O)OCC
inactive: [1] 104 % of control | [2] 95 % of control | [3] 117 % of control

O=C(O)C(Br)C(Br)C(=O)Nc1ccc(Cl)c(Cl)c1 (configuration not stated)
inactive: [6] 101 % of control | [7] 104 % of control | [8] 93 % of control

O=c1[nH]c(Cc2ccccc2)c(Br)c(=O)[nH]1
inactive: dose: 50.0 mg/kg/injection, schedule: Q01DX001 (ip), vehicle: saline 102 % of control | [9] 100 % of control | [6] 104 % of control | dose: 100.0 mg/kg/injection, schedule: Q## X009 (ip), vehicle: saline with Tween-80 104 % of control | [10] 100 % of control | [7] 92 % of control | dose: 200.0 mg/kg/injection, schedule: Q## X009 (ip), vehicle: saline with Tween-80 92 % of control | [11] 94 % of control

C/C=C(\C)C(=Nc1ccc(Cl)c(Cl)c1)N(C)C
inactive: dose: 222.0 mg/kg/injection, schedule: Q01DX Z (ip), vehicle: saline 102 % of control | dose: 333.0 mg/kg/injection, schedule: Q01DX Z (ip), vehicle: saline 100 % of control | dose: 500.0 mg/kg/injection, schedule: Q01DX Z (ip), vehicle: saline 118 % of control

COC(=O)C1OC(CO)C(O)C1O (configuration not stated)
inactive: [9] 105 % of control | dose: 100.0 mg/kg/injection, schedule: Q04DX003 (ip), vehicle: saline 110 % of control | [10] 113 % of control | dose: 200.0 mg/kg/injection, schedule: Q04DX003 (ip), vehicle: saline 107 % of control | [11] 97 % of control | dose: 400.0 mg/kg/injection, schedule: Q04DX003 (ip), vehicle: saline 110 % of control

CC(C)(C)OC1C2C=CC1C1C2C2(Cl)C(Cl)=C(Cl)C1(Cl)C21OCCO1 (configuration not stated)
inactive: dose: 100.0 mg/kg/injection, schedule: Q04DX002 (ip), vehicle: Klucel (hydroxypropylcellulose) (HPC) 97 % of control | dose: 400.0 mg/kg/injection, schedule: Q04DX002 (ip), vehicle: Klucel (hydroxypropylcellulose) (HPC) 110 % of control

O=P(c1ccccc1)(c1ccccc1)N1CCCCC1
inactive: [12] 101 % of control | [13] 96 % of control | [14] 93 % of control

COc1ccc2c(c1)CCC1=C2CCC(C(=O)O)C1(C)C(=O)O (configuration not stated)
inactive: dose: 100.0 mg/kg/injection, schedule: Q01DX001 (ip), vehicle: Klucel (hydroxypropylcellulose) (HPC) 97 % of control | dose: 200.0 mg/kg/injection, schedule: Q01DX001 (ip), vehicle: Klucel (hydroxypropylcellulose) (HPC) 108 % of control | dose: 400.0 mg/kg/injection, schedule: Q01DX001 (ip), vehicle: Klucel (hydroxypropylcellulose) (HPC) 92 % of control

NC(CC(=O)O)C(=O)O.[Cu+2] (configuration not stated)
inactive: dose: 5.0 mg/kg/injection, schedule: Q01DX009 (ip), vehicle: Klucel (hydroxypropylcellulose) (HPC) 106 % of control | dose: 10.0 mg/kg/injection, schedule: Q01DX009 (ip), vehicle: Klucel (hydroxypropylcellulose) (HPC) 104 % of control | dose: 20.0 mg/kg/injection, schedule: Q01DX009 (ip), vehicle: Klucel (hydroxypropylcellulose) (HPC) 108 % of control | dose: 20.0 mg/kg/injection, schedule: Q04DX003 (ip), vehicle: Klucel (hydroxypropylcellulose) (HPC) 100 % of control

O=c1[nH]c(=O)n(C2CCCCO2)cc1F (configuration not stated)
inactive: dose: 2.5 mg/kg/injection, schedule: Q01DX009 (ip), vehicle: saline 100 % of control | dose: 5.0 mg/kg/injection, schedule: Q01DX009 (ip), vehicle: saline 104 % of control | dose: 10.0 mg/kg/injection, schedule: Q01DX009 (ip), vehicle: saline 94 % of control | dose: 20.0 mg/kg/injection, schedule: Q01DX009 (ip), vehicle: saline 96 % of control | dose: 40.0 mg/kg/injection, schedule: Q01DX009 (ip), vehicle: saline 100 % of control | dose: 80.0 mg/kg/injection, schedule: Q01DX009 (ip), vehicle: saline 96 % of control | dose: 160.0 mg/kg/injection, schedule: Q01DX009 (ip), vehicle: saline 98 % of control

Cc1ccccc1Nc1n[nH]c(=S)s1
inactive: dose: 50.0 mg/kg/injection, schedule: Q01DX009 (ip), vehicle: saline with Tween-80 94 % of control | [6] 101 % of control | [1] 97 % of control | [7] 97 % of control | [2] 95 % of control

C/C=C\C=N\NC(=O)CCCCCCCCCCC
inactive: dose: 25.0 mg/kg/injection, schedule: Q01DX009 (ip), vehicle: Klucel (hydroxypropylcellulose) (HPC) 105 % of control | dose: 50.0 mg/kg/injection, schedule: Q01DX009 (ip), vehicle: Klucel (hydroxypropylcellulose) (HPC) 91 % of control | [4] 100 % of control and 90 % of control

CCN(CC)C(=O)C1(C)CCCC2(C)c3cc(OC(C)=O)ccc3CCC12 (configuration not stated)
inactive: [4] 92 % of control | [12] 108 % of control | [5] 87 % of control | [13] 100 % of control | [14] 100 % of control

Cc1cc2oc(=O)c(Cl)c(NCCO)c2c(C)c1Cl
inactive: [6] 104 % of control | [7] 96 % of control | [8] 95 % of control
